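These data come from cells grown in 96-well plates and exposed to compound for 48 hours at five concentrations. TGI: concentration producing complete growth inhibition.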
tested on: M19-MEL melanoma; experiment: inhibition of tumour cell growth, NCI panel, 48 h

Point of comparison: `Cn1cnc([N+](=O)[O-])c1Sc1nnc(-c2cccnc2)n1C`, TGI 38.8 µM. Against it:
- CC1=C(C(=O)NCc2ccccc2)C(/C=C/c2ccccc2)C(C(=O)NCc2ccccc2)=C(C)N1 — higher, > 100 µM
- CN(C)CC[N+]1=Nc2cccc3cccc(c23)N1 — higher, > 100 µM
- Cc1cc(C)nc(NS(=O)(=O)c2ccc(NC(=O)c3ccc(Cl)c4c(Nc5ccc(S(=O)(=O)Nc6nc(C)cc(C)n6)cc5)c5ccccc5nc34)cc2)n1 — 4.7-fold lower, 8.28 µM
- O=C1C(=O)N(c2ccc(Cl)cc2Cl)C(=O)C(=O)C1c1nc2ccccc2s1 — higher, > 100 µM

tested on: DLD-1 colon; experiment: inhibition of tumour cell growth, NCI panel, 48 h

Point of comparison: `Cn1cnc([N+](=O)[O-])c1Sc1nnc(-c2cccnc2)n1C`, TGI 40.5 µM. Against it:
- CC1=C(C(=O)NCc2ccccc2)C(/C=C/c2ccccc2)C(C(=O)NCc2ccccc2)=C(C)N1 — higher, > 100 µM
- CN(C)CC[N+]1=Nc2cccc3cccc(c23)N1 — higher, > 59.8 µM
- Cc1cc(C)nc(NS(=O)(=O)c2ccc(NC(=O)c3ccc(Cl)c4c(Nc5ccc(S(=O)(=O)Nc6nc(C)cc(C)n6)cc5)c5ccccc5nc34)cc2)n1 — 2.1-fold higher, 84.2 µM
- O=C1C(=O)N(c2ccc(Cl)cc2Cl)C(=O)C(=O)C1c1nc2ccccc2s1 — higher, > 92.2 µM

tested on: DMS 273 small cell lung; experiment: inhibition of tumour cell growth, NCI panel, 48 h

Point of comparison: `CN(C)CC[N+]1=Nc2cccc3cccc(c23)N1`, TGI 35.6 µM. Against it:
- Cn1cnc([N+](=O)[O-])c1Sc1nnc(-c2cccnc2)n1C — higher, > 100 µM
- CC1=C(C(=O)NCc2ccccc2)C(/C=C/c2ccccc2)C(C(=O)NCc2ccccc2)=C(C)N1 — higher, > 100 µM
- Cc1cc(C)nc(NS(=O)(=O)c2ccc(NC(=O)c3ccc(Cl)c4c(Nc5ccc(S(=O)(=O)Nc6nc(C)cc(C)n6)cc5)c5ccccc5nc34)cc2)n1 — higher, > 100 µM
- O=C1C(=O)N(c2ccc(Cl)cc2Cl)C(=O)C(=O)C1c1nc2ccccc2s1 — higher, > 100 µM

tested on: DMS 114 small cell lung; experiment: inhibition of tumour cell growth, NCI panel, 48 h

Point of comparison: `Cc1cc(C)nc(NS(=O)(=O)c2ccc(NC(=O)c3ccc(Cl)c4c(Nc5ccc(S(=O)(=O)Nc6nc(C)cc(C)n6)cc5)c5ccccc5nc34)cc2)n1`, TGI 8.54 µM. Against it:
- Cn1cnc([N+](=O)[O-])c1Sc1nnc(-c2cccnc2)n1C — higher, > 49.2 µM
- CC1=C(C(=O)NCc2ccccc2)C(/C=C/c2ccccc2)C(C(=O)NCc2ccccc2)=C(C)N1 — higher, > 100 µM
- CN(C)CC[N+]1=Nc2cccc3cccc(c23)N1 — higher, > 100 µM
- O=C1C(=O)N(c2ccc(Cl)cc2Cl)C(=O)C(=O)C1c1nc2ccccc2s1 — higher, > 100 µM

tested on: KM20L2 colon; experiment: inhibition of tumour cell growth, NCI panel, 48 h

Point of comparison: `Cc1cc(C)nc(NS(=O)(=O)c2ccc(NC(=O)c3ccc(Cl)c4c(Nc5ccc(S(=O)(=O)Nc6nc(C)cc(C)n6)cc5)c5ccccc5nc34)cc2)n1`, TGI 69.9 µM. Against it:
- Cn1cnc([N+](=O)[O-])c1Sc1nnc(-c2cccnc2)n1C — higher, > 100 µM
- CC1=C(C(=O)NCc2ccccc2)C(/C=C/c2ccccc2)C(C(=O)NCc2ccccc2)=C(C)N1 — higher, > 100 µM
- CN(C)CC[N+]1=Nc2cccc3cccc(c23)N1 — higher, > 100 µM
- O=C1C(=O)N(c2ccc(Cl)cc2Cl)C(=O)C(=O)C1c1nc2ccccc2s1 — higher, > 100 µM

tested on: MCF7 breast; experiment: inhibition of tumour cell growth, NCI panel, 48 h

In the case of `Cn1cnc([N+](=O)[O-])c1Sc1nnc(-c2cccnc2)n1C`, the TGI was 46.8 µM.

tested on: HS 578T breast; experiment: inhibition of tumour cell growth, NCI panel, 48 h

For `Cn1cnc([N+](=O)[O-])c1Sc1nnc(-c2cccnc2)n1C`, the TGI was greater than 89.4 µM.

tested on: T-47D breast; experiment: inhibition of tumour cell growth, NCI panel, 48 h

In the case of `Cn1cnc([N+](=O)[O-])c1Sc1nnc(-c2cccnc2)n1C`, the TGI was 32 µM.

tested on: XF 498 CNS; experiment: inhibition of tumour cell growth, NCI panel, 48 h

Point of comparison: `Cn1cnc([N+](=O)[O-])c1Sc1nnc(-c2cccnc2)n1C`, TGI 44.8 µM. Against it:
- CC1=C(C(=O)NCc2ccccc2)C(/C=C/c2ccccc2)C(C(=O)NCc2ccccc2)=C(C)N1 — higher, > 100 µM
- CN(C)CC[N+]1=Nc2cccc3cccc(c23)N1 — higher, > 100 µM
- Cc1cc(C)nc(NS(=O)(=O)c2ccc(NC(=O)c3ccc(Cl)c4c(Nc5ccc(S(=O)(=O)Nc6nc(C)cc(C)n6)cc5)c5ccccc5nc34)cc2)n1 — higher, > 100 µM
- O=C1C(=O)N(c2ccc(Cl)cc2Cl)C(=O)C(=O)C1c1nc2ccccc2s1 — 2.2-fold higher, 98.1 µM

tested on: NCI/ADR-RES ovarian; experiment: inhibition of tumour cell growth, NCI panel, 48 h

For `Cn1cnc([N+](=O)[O-])c1Sc1nnc(-c2cccnc2)n1C`, the TGI was greater than 100 µM.

tested on: HOP-18 NSCLC; experiment: inhibition of tumour cell growth, NCI panel, 48 h

Point of comparison: `Cn1cnc([N+](=O)[O-])c1Sc1nnc(-c2cccnc2)n1C`, TGI 35.6 µM. Against it:
- CC1=C(C(=O)NCc2ccccc2)C(/C=C/c2ccccc2)C(C(=O)NCc2ccccc2)=C(C)N1 — higher, > 100 µM
- CN(C)CC[N+]1=Nc2cccc3cccc(c23)N1 — higher, > 100 µM
- Cc1cc(C)nc(NS(=O)(=O)c2ccc(NC(=O)c3ccc(Cl)c4c(Nc5ccc(S(=O)(=O)Nc6nc(C)cc(C)n6)cc5)c5ccccc5nc34)cc2)n1 — 5.5-fold lower, 6.53 µM
- O=C1C(=O)N(c2ccc(Cl)cc2Cl)C(=O)C(=O)C1c1nc2ccccc2s1 — higher, > 100 µM

tested on: LXFL 529 NSCLC; experiment: inhibition of tumour cell growth, NCI panel, 48 h

Point of comparison: `Cn1cnc([N+](=O)[O-])c1Sc1nnc(-c2cccnc2)n1C`, TGI 24.4 µM. Against it:
- CC1=C(C(=O)NCc2ccccc2)C(/C=C/c2ccccc2)C(C(=O)NCc2ccccc2)=C(C)N1 — higher, > 100 µM
- CN(C)CC[N+]1=Nc2cccc3cccc(c23)N1 — higher, > 100 µM
- Cc1cc(C)nc(NS(=O)(=O)c2ccc(NC(=O)c3ccc(Cl)c4c(Nc5ccc(S(=O)(=O)Nc6nc(C)cc(C)n6)cc5)c5ccccc5nc34)cc2)n1 — 2.5-fold higher, 61.2 µM
- O=C1C(=O)N(c2ccc(Cl)cc2Cl)C(=O)C(=O)C1c1nc2ccccc2s1 — higher, > 100 µM

Source: PubChem BioAssay (NCI)
